According to patent US20050182129A1, “Hair growth tonic” (priority 2002, published 2005):
“Also recorded” adds a separate entry of the source.

Assays:
WNT-5A mRNA [1] = test: Activity of decreasing WNT-5A mRNA amount (QuantiGene bDNA method), Test Example 4; assay type: cell-based; settings: Homo sapiens, Human dermal papilla cell, 24 h, human dermal papilla cells, concentration at which the mRNA amount is halved, average of 2 wells
Experimental: (§1) Human dermal papilla cells, which were purchased from Toyobo, were cultured in MEM (Invitrogen) containing 12% FBS.
(§2) The dermal papilla cells in passage 5 were sowed in a 96-well plate to give a density of 1×10^4 cells/well and cultured overnight. Then, the medium was replaced by a medium to which no compound was added or a medium containing the compounds and the culture was continued for additional 24 hours. After the completion of the culture, WNT-5A or GAPDH mRNA amount was measured by using QuantiGene High Volume Kit (Bayer Medical) by the branched DNA (bDNA) signal amplification method (Drug Metabolism and Disposition, 28(5), 608-616 (2000)). In accordance with the protocol attached to QuantiGene High Volume Kit, cells were lysed by using Lysis Mixture and the lysis solution was added to capture plate. Next, a set of probes specific to WNT-5A or GPDH was added and allowed to react at 53° C. for 20 hours. After washing the plate by using 0.1×SSC containing 0.03% lauryl sulfate, an amplification probe comprising bDNA was added and allowed to react at 46° C. for 1 hour. After washing the plate, a labeling probe labeled with alkaline phosphatase was added and allowed to react at 46° C. for 1 hour. After washing the plate, a substrate Lumi-Phos Plus was added and allowed to react at 46° C. for 30 minutes. Then, the luminescence was measured by using WALLAC 1420ARVOsx.
The WNT-5A-specific probe set was designed based on the sequence of the coding region of human WNT-5A mRNA. As capture extenders (CEs), 10 probes (SEQ ID NOs:12 to 21) were used; as label extenders (LEs), 31 probes (SEQ ID NOs:22 to 52) were employed; and as blockers, […] (SEQ ID NOs:53 to 60) were employed.
(§3) The amounts of WNT-5A and GAPDH mRNAs are expressed in relative values (%) to the control case of adding of no compound and the concentration of a compound at which the mRNA amount is halved (IC50) is calculated as an index of WNT-5A mRNA decreasing activity of the corresponding compound.

[2] = system: Human dermal papilla cells; test: Dermal papilla cell growth promoting activity (WST-1, spheroid culture), Test Example 5; assay type: cell-based; settings: for activity at 1 µM / activity at 4 µM / activity at 16 µM: Homo sapiens, Human dermal papilla cell, 72 hours, average of 3 wells, read-out: ΔO.D. 450 nm/620 nm (% of control)
Experimental: as §1
The dermal papilla cells in passage 5 were sowed in a 96-well plate for spheroid culture to give a density of 1.5×10^4 cells/well and cultured overnight. Then, the medium was replaced by a medium to which no compound was added or a medium containing the compound and the culture was continued for additional 72 hours. After the completion of the culture, cells were counted by using a Cell Counting Kit (Wako Pure Chemicals). Five hours before the completion of the culture, WST-1 reagent at 1/10 amount per medium was added to each medium and then the optical density (O.D. 450 nm/620 nm) of the medium was measured at the completion of the culture. A positive correlation was observed between the cell number and optical density within the range of 0.25 to 4×10^4 cells/well.
In this table, each numerical value means an average of 6 wells (control group) or 3 wells (test groups). To compare the control group to the test groups, Student's t-test was employed: • *:P<0.05, **:P<0.01, ***:P<0.001.

GAPDH mRNA = GAPDH mRNA amount (QuantiGene bDNA method), Test Example 4; assay type: cell-based; settings: Human dermal papilla cell; human dermal papilla cells, 24 hours, concentration at which the mRNA amount is halved, average of 2 wells
Experimental: as §1, §2
As GAPDH-specific probe set, use was made of bDNA probe set for human GAPDH (XenoTech LLC, B0960).
as §3

WNT-5A mRNA [3] = test: Decrease in WNT-5A mRNA in monkey skin organ culture (RT-PCR), Test Example 6; assay type: cell-based, Cynomolgus monkey (Macaca fascicularis); settings: 40-cycle PCR, hair follicles, 11th day of culturing, FIG. 4
Experimental: (§4) The dorsal skin of a Cynomolgus monkey (Macaca fascicularis) (male, 6 years old) was collected and divided into pieces (5 mm×8 mm) under a stereoscopic microscope. Then each skin tissue piece was cultured in William's Medium E (Invitrogen) to which no compound was added or Compound 7 or Compound 3 was added and which contained 10 μg/ml insulin (Sigma) and 10 ng/ml hydrocortisone (Kurabo).
On the 11th day of the culturing, hair follicles were separated from each skin tissue piece and total RNAs were extracted by using TRIzol reagent (Invitrogen). Using 200 ng portions of the total RNAs, 0.4 μM portions of primers specific to WNT-5A or glyceraldehyde3-phosphate dehydrogenase (GAPDH) [WNT-5A sense: AATGTCTTCCAAGTTCTTCCTAGTGGC (SEQ ID NO-8), WNT-5A antisense: GATGTCGGAATTGATACTGGCA (SEQ ID NO:9), GAPDH sense: ACCACAGTCC ATGCCATCAC (SEQ ID NO:10) and GAPDH antisense: TCCACCACCC TGTTGCTGTA (SEQ ID NO:11)] and SUPERSCRIPT One-Step RT-PCT with PLATINUM Taq (Invitrogen), RT-PCR was cared out in accordance with the protocol attached to SUPERSCRIPT One-Step RT-PCT with PLATINUM Taq. In brief, first strand synthesis was carried out at 50° C. for 30 minutes in a reaction system of 25 μl in total volume in accordance with the protocol attached to SUPERSCRIPT One-Step RT-PCT with PLATINUM Taq. […]

[4] = system: hair follicles in monkey skin organ culture; test: Enlargement in hair bulb diameter in monkey skin organ culture, Test Example 8; assay type: cell-based, Cynomolgus monkey (Macaca fascicularis); settings: culturing for 30 days, FIGS. 6 and 7
Experimental: as §4, with “μg/ml of” for “μg/ml”, “ng/ml of” for “ng/ml”
On the 30th day of the culturing, all follicles contained in each skin tissue piece were separated and the diameter of bulbs was measured under a stereoscopic microscope.
FIGS. 6 and 7 show the results. In these figures, each numerical value means mean±S.E. of bulb diameters of all follicles contained in each skin tissue piece. To compare the control group with the test groups, Student's t-test was employed: • *:P<0.05.

[5] = system: stumptailed macaque suffering from alopecia; test: Hair growth test on stumptailed macaque, Test Example 9; assay type: in vivo, stumptailed macaque (Macaca arctoides); settings: lotion containing 0.3% compound
Experimental: To the forehead of a stumptailed macaque (Macaca arctoides) (male, 14 years old) suffering from alopecia, 1 mL of a lotion containing 0.3% Compound 7 was applied once a day 5 times per week for 6 months. Before the initiation of the application, the alopecia site in the forehead was marked by tattoo. The skin part including the tattoo was photographed before the initiation of the application and after applying for 6 months.

IC50 (WNT-5A mRNA [1]) [µM]	IC50 (GAPDH mRNA) [µM]	Structure (SMILES)	activity at 1 µM [2] [%]	activity at 4 µM [2] [%]	activity at 16 µM [2] [%]	amplified WNT-5A cDNA fragment (WNT-5A mRNA [3])	average bulb diameter of the follicles vs control [4]	growth of dermal papilla cells ([2]; no concentration stated)	alopecia in the forehead ([5]; 1 mL once a day 5 times per week for 6 months, FIG. 8)	thick terminal hairs ([5]; after applying for 6 months)	vellus hairs ([5]; after applying for 6 months)
3.16	58	C[C@@H]1C[C@@H]2O[C@H]2CC/C=C/C(=O)Cc2c(Cl)c(O)cc(O)c2C(=O)O1 [Compound 3]	92.9 ± 1.6	92.9 ± 9.9	244 ± 33.4	remarkably decreased	significantly higher; also recorded: enlarges the hair bulb diameter	–	–	–	–
4.07	> 120	C[C@@H]1C[C@@H]2O[C@H]2CC/C=C/[C@H](O)Cc2c(Cl)c(O)cc(O)c2C(=O)O1 [Compound 7]	82.6 ± 3.9	170 ± 10.4	195 ± 12.7	remarkably decreased	enlarges the hair bulb diameter; also recorded: significantly higher	excellent effect of promoting the growth	clearly ameliorated	increased	decreased
